# Columns and labels:
# [1] = In-vivo toxicity study (compounds only), serum liver, lipid and kidney tests; settings: compound only, 25 mg/kg p.o. every 24 h for 14 days
# Experimental: (§1) Rats were divided into eleven groups, with seven rats in each group. Group I, the control group, received corn oil (1 ml/kg body weight, i.p.) every 72 h for 14 days. Group II, the hepatotoxicity group, received CCl4 (1 ml/kg body weight, a 1:1 v/v mixture of CCl4 and corn oil, i.p.) every 72 h for 14 days. Groups III–VI, the treated groups, received compounds (1a, 1b, 2a, and 2b), respectively, (25 mg/kg body weight, suspended in 0.5% CMC, p.o.) every 24 h, as well as CCl4 (1 ml/kg body weight, a 1:1 v/v mixture of CCl4 and corn oil, i.p.) every 72 h for 14 days. […]
# (§2) Rats were euthanized 24 h after the last dose of treatment with an inhaled overdose of isoflurane. […] Total protein content of all homogenates were determined using the Pierce™ BCA Protein Assay Kit (Catalog number: 23227, Thermo-Fisher Scientific Co., USA) following the manufacturer’s instructions. […]
# A variety of colorimetric serum diagnostic kits were used to assess the toxicity and hepatoprotective potential of the newly synthesized derivatives. Lipid profile parameters, including total cholesterol (TC) and triglycerides (TG), as well as kidney function tests, urea, and creatinine were measured to evaluate the toxicity profile. […]
# [2] = system: liver tissues; assay: In-vivo toxicity study (compounds only), liver histopathology (H&E, Masson trichrome); design: key to fibrosis score in liver sections (safety profile): F0 = no fibrosis; F1 = mild/moderate; F2 = significant; F3 = advanced fibrosis; F4 = cirrhosis; settings: compound only, 25 mg/kg p.o. 14 days; for fibrosis score in liver sections (safety profile): Masson trichrome, METAVIR; for lobular inflammation in liver sections (safety profile): H&E, noted less frequently in Cpd 2b
# Experimental: (§3) Rats were divided into eleven groups, with seven rats in each group. Group I, the control group, received corn oil (1 ml/kg body weight, i.p.) every 72 h for 14 days. Group II, the hepatotoxicity group, received CCl4 (1 ml/kg body weight, a 1:1 v/v mixture of CCl4 and corn oil, i.p.) every 72 h for 14 days. Groups III–VI, the treated groups, received compounds (1a, 1b, 2a, and 2b), respectively, (25 mg/kg body weight, suspended in 0.5% CMC, p.o.) every 24 h, as well as CCl4 (1 ml/kg body weight, a 1:1 v/v mixture of CCl4 and corn oil, i.p.) every 72 h for 14 days. Group VII, the positive control group, received silymarin (100 mg/kg, suspended in 0.5% CMC, p.o.) every 24 h, as well as CCl4 (1 ml/kg body weight, a 1:1 v/v mixture of CCl4 and corn oil, i.p.) every 72 h for 14 days. Groups VIII–XI, the safety profile groups, received only compounds (1a, 1b, 2a, and 2b), respectively, (25 mg/kg, suspended in 0.5% CMC, p.o.) every 24 h for 14 days.
# (§4) Rats were euthanized 24 h after the last dose of treatment with an inhaled overdose of isoflurane. Blood was extracted through a cardiac puncture, left for coagulation, and the serum was obtained by centrifugation for 10 min at 5000 rpm (GBF501, Centrifuge Cencom-II, Selecta). Livers were collected, then dissected into portions. One portion was fixed overnight in 10% buffered formalin (Adwic—El Nasr Pharmaceutical Co., Egypt) for histological examination. Another portion was homogenized, centrifuged at 10,000 rpm for 10 min, and the supernatants were collected for further investigation. Total protein content of all homogenates were determined using the Pierce™ BCA Protein Assay Kit (Catalog number: 23227, Thermo-Fisher Scientific Co., USA) following the manufacturer’s instructions. Liver tissues and homogenates were stored at − 80 °C until used.
# (§5) Serial sectioning was done on the formalin-fixed liver tissues, which were then processed into paraffin blocks. Multiple serial, 5-μm-thick sections were cut and mounted on glass slides. One section was stained by H&E stain to assess the activity, while the other was stained by Masson trichrome stain to assess fibrosis. Both activity and fibrosis were assessed using a light microscope (Olympus, CX 22LED) using the METAVIR scoring system. For activity, the number of inflammatory foci (lobular necrosis) and degree of portal inflammation (piece meal necrosis) were evaluated, and then a final histological activity score was given (A0 = none, A1 = mild, A2 = moderate, and A3 = sever). Meanwhile, fibrosis assessment was done on Masson trichrome stained sections. The fibrosis scored according to a 4-tiered system (F0 = no fibrosis, F1 = mild/moderate, F2 = significant, F3 = advanced fibrosis, and F4 = cirrhosis). Other pathologic features, such as the presence or absence of steatosis and/or apoptotic hepatocytes, were assessed if present.
# [3] = system: Human hepatoma (HepG2) cells; assay: MTT in-vitro cytotoxicity assay on HepG2 cells; assay type: cell-based; settings: HepG2, 24 h treatment, 7.8125-500 μM
# Experimental: Human hepatoma (HepG2) cells were used to evaluate the in-vitro cytotoxicity of the newly synthesized compounds compared to tacrine as their structure-inspiring drug. The HepG2 cell line was obtained from ATCC. The cells were cultured in DMEM with high glucose, supplemented with 10% FBS, 100 U/ml penicillin, and 1% streptomycin were maintained in a 37 °C incubator with 5% CO2 in a humidified atmosphere. One day before the treatment, cells were seeded at a density of 1 × 10^4 cells/well in a sterile flat bottom 96-well tissue culture plate. After leaving the cells to adhere for 24 h, cells were treated with different concentrations (7.8125, 15.625, 31.25, 62.5, 125, 250, and 500 μM) of each compound as well as tacrine for 24 h in the 5% CO2 incubator.
# Thereafter, cell viability was assessed using a 3-(4,5-dimethyl-2-thiazolyl)-2,5-diphenyl-tetrazolium bromide (MTT) assay obtained from Biobasic inc (Canada). Following the 24-h treatment period, MTT was added to the wells at a final concentration of 0.5 mg/mL, and the cells were incubated for 4 h in the dark. Subsequently, the media were carefully removed from the wells, and the formed formazan crystals were dissolved by adding 100 μL of DMSO. Absorbance readings were taken using a microplate reader (BioTek, USA), and the percentage cell viability was calculated for each condition relative to the control cells treated with the same DMSO concentration.
# [4] = system: CCl4-induced hepatotoxicity; assay: CCl4-induced hepatotoxicity model, liver histopathology (METAVIR scoring); assay type: in vivo, Wistar albino male rats; design: key to activity grade (METAVIR): A0 = none; A1 = mild; A2 = moderate; A3 = sever; key to fibrosis score (METAVIR): F0 = no fibrosis; F1 = mild/moderate; F2 = significant; F3 = advanced fibrosis; F4 = cirrhosis; settings: 14 days
# Experimental: as §3, §4, §5
# [5] = system: Beclin-1; assay: CCl4 model, Beclin-1 ELISA in liver homogenates; assay type: in vivo, Wistar albino male rats; settings: CCl4 + compound 25 mg/kg (silymarin 100 mg/kg) p.o. daily, 14 days
# Experimental: as §1, §2
# (§6) The pro-inflammatory and pro-fibrotic cytokines tumor necrosis factor alpha (TNF-α) and transforming growth factor beta (TGF-β) were evaluated in liver tissues using ELISA kits (Catalog Numbers: CSB-E11987r and CSB-E04727r, CUSABIO, USA). For further investigation of the potential mechanism of action of the synthesized compounds, the levels of autophagy-related proteins, Beclin-1 (Catalog Number: CSB-EL002658RA, CUSABIO, USA) and LC3B (Catalog No. LS-F19802, Lifespan Biosciences, USA), were quantified in liver homogenates. […]
# [6] = system: alpha-smooth muscle actin (α-SMA) positive HSCs/myofibroblasts; assay: CCl4 model, α-SMA immunohistochemistry of liver sections; assay type: in vivo, Wistar albino male rats; settings: CCl4 + compound 25 mg/kg p.o. daily, 14 days; vs hepatotoxicity group
# Experimental: as §3
# From paraffin-embedded blocks of liver tissues, 4- to 5-μm-thick sections were cut using a semi-automated microtome. […] They were stained by alpha-smooth muscle actin (α-SMA) primary antibody (Clone 1A4, ready-to-use, mouse monoclonal antibody, Dako) using the autostainer DAKO link 48. […] Using Image J software, activated HSCs/myofibroblasts were counted in the five high power fields. […] Only cells with well-visible nuclei were counted.
# [7] = system: transforming growth factor beta (TGF-β); assay: CCl4 model, TGF-β ELISA in liver tissues; assay type: in vivo, Wistar albino male rats; settings: CCl4 + compound 25 mg/kg p.o. daily, 14 days; vs hepatotoxicity group unless stated
# Experimental: as §1, §2, §6
# [8] = system: LC3B; assay: CCl4 model, LC3B ELISA in liver homogenates; assay type: in vivo, Wistar albino male rats; settings: CCl4 + compound 25 mg/kg (silymarin 100 mg/kg) p.o. daily, 14 days
# Experimental: as §1, §2, §6
# [9] = system: CCl4-induced oxidative stress; assay: CCl4 model, oxidative stress markers (MDA, GSH) in liver homogenates; assay type: in vivo, Wistar albino male rats; settings: CCl4 + compound 25 mg/kg p.o. daily, 14 days; vs hepatotoxicity group unless stated
# Experimental: as §3, with “Groups VIII–XI, the safety profile groups, received only compounds (1a, 1b, 2a, and 2b), respectively, (25 mg/kg, suspended in 0.5% CMC, p.o.) every 24 h for 14 days.” left out
# as §2
# The level of reduced glutathione (GSH) was measured in liver tissue homogenates using a colorimetric kit for GSH (Cat.No.E-BC-K030-M, Elabscience, USA). Malondialdehyde (MDA) levels were determined as thiobarbituric acid reactive substances (TBARS) in liver homogenates according to the method of Draper and Hadley.
# [10] = system: tumor necrosis factor alpha (TNF-α); assay: CCl4 model, TNF-α ELISA in liver tissues; assay type: in vivo, Wistar albino male rats; settings: CCl4 + compound 25 mg/kg p.o. daily, 14 days; vs hepatotoxicity group unless stated
# Experimental: as §1, §2, §6
# [11] = system: CCl4-induced hepatotoxicity; assay: CCl4-induced hepatotoxicity model, serum liver function tests; assay type: in vivo, Wistar albino male rats; settings: CCl4 1 ml/kg i.p. every 72 h + compound 25 mg/kg p.o. daily, 14 days; vs hepatotoxicity group unless stated
# Experimental: as §3, §4
# A variety of colorimetric serum diagnostic kits were used to assess the toxicity and hepatoprotective potential of the newly synthesized derivatives. Lipid profile parameters, including total cholesterol (TC) and triglycerides (TG), as well as kidney function tests, urea, and creatinine were measured to evaluate the toxicity profile. Liver function tests, including alanine transaminase (ALT), aspartate transaminase (AST), alkaline phosphatase (ALP), and total bilirubin (TBIL) were used for the assessment of both hepatotoxicity and hepatoprotective potential. All diagnostic kits were purchased from Biodiagnostics, Egypt, and were used and stored according to the manufacturer’s instructions.
# [12] = CCl4 + compound 25 mg/kg p.o. daily
# [13] = CCl4 + compound 25 mg/kg (silymarin 100 mg/kg) p.o. daily
Structure (SMILES),total cholesterol (safety profile) [1],triglyceride levels (safety profile) [1],fibrosis score in liver sections (safety profile) [2],IC50 [3] [µM],"fibrosis score (METAVIR) ([4]; CCl4 + compound 25 mg/kg (silymarin 100 mg/kg) p.o. daily, hepatotoxicity group F4)","steatosis and apoptotic cells in liver sections [4, 12]","activity grade (METAVIR) ([4]; CCl4 + compound 25 mg/kg p.o. daily, hepatotoxicity group A3)",expression of Beclin-1 protein [5],number of α-SMA positive cells / 5 HPFs [6],TGF-β level in liver tissues [7],expression of LC3B protein [8],MDA levels in liver homogenates [9],TNF-α level in liver tissues [10],serum ALT [11],serum AST [11],"improvement of liver fibrosis / architecture, in words [4, 13]","lobular and portal inflammation (activity), in words [4, 12]",lobular inflammation in liver sections (safety profile) [2]
"CN(C)c1ccc(-c2c3c([nH]c(=O)c2C#N)CCCC3)cc1 [Cpd 1a, 4-(4-(dimethylamino)phenyl)-1,2,5,6,7,8-hexahydro-2-oxoquinoline-3-carbonitrile]",significantly lowering,significantly lowering,F0,181,F3,Macrovesicular steatosis and apoptotic cells were still detected,A2,,,,,,,,,,,
"CN(C)c1ccc(-c2c(C#N)c(N)nc3c2CCCC3)cc1 [Cpd 2a, 2-Amino-4-(4-(dimethylamino)phenyl)-5,6,7,8-tetrahydroquinoline-3-carbonitrile]",,,F0,171,,No steatosis or apoptotic cells were detected,,greater impact on inhibiting autophagy compared to the other compounds tested,"better levels of significance, closely aligning with silymarin",better effect on decreasing the level of both cytokines relative to compounds 1a and 1b and silymarin,greater impact on inhibiting autophagy compared to the other compounds tested,"highly superior to compounds 1a, 1b and silymarin",better effect on decreasing the level of both cytokines relative to compounds 1a and 1b and silymarin,as beneficial as silymarin,as beneficial as silymarin,best protective effect on the liver sections,improved markedly,
"N#Cc1c(N)nc2c(c1-c1ccc(O)cc1)CCCC2 [Cpd 2b, 2-Amino-5,6,7,8-tetrahydro-4-(4-hydroxyphenyl)quinoline-3-carbonitrile]",,,F0,169,,,,greater impact on inhibiting autophagy compared to the other compounds tested,"better levels of significance, closely aligning with silymarin",better effect on decreasing the level of both cytokines relative to compounds 1a and 1b and silymarin,greater impact on inhibiting autophagy compared to the other compounds tested,"highly superior to compounds 1a, 1b and silymarin",better effect on decreasing the level of both cytokines relative to compounds 1a and 1b and silymarin,as beneficial as silymarin,as beneficial as silymarin,better improvement in fibrosis score,,"mild, insignificant lobular inflammation (activity grade 1)"
"Nc1c2c(nc3ccccc13)CCCC2 [tacrine, Tacrine, reference compound]",,,,124,,,,,,,,,,,,,,
"N#Cc1c(-c2ccc(O)cc2)c2c([nH]c1=O)CCCC2 [Cpd 1b, 1,2,5,6,7,8-hexahydro-4-(4-hydroxyphenyl)-2-oxoquinoline-3-carbonitrile]",,,F0,174,,,,,,,,,,,,better improvement in fibrosis score,,"mild, insignificant lobular inflammation (activity grade 1)"

# — article PMC11129499, “The hepatoprotective effect of 4-phenyltetrahydroquinolines on carbon tetrachloride induced hepatotoxicity in rats through autophagy inhibition” (Biological Research, 2024)
